IC50 data for twelve compounds are collected here from US20250034135A1, “ANTI-APOPTOTIC PROTEIN BCL-2 INHIBITOR, PHARMACEUTICAL COMPOSITION AND USES THEREOF” (HANGZHOU HEALZEN THERAPEUTICS CO., LTD., priority 2021, published 2025).

One experiment concerns the target BCL-XL (Homo sapiens (Human), UniProt Q07817). Nature of the experiment: BCL-XL enzyme molecular level activity test (HTRF, binding to BIM peptide). Conditions: binding of BCL-XL to BIM peptide, values in nM, read-out: BCL-XL inhibitory activity (IC50). On the procedure: In a white shallow 384-well plate, a total reaction volume was 10 μL. Specifically, it included 2 μL of the compound to be tested (2% DMSO), […] His-tagged recombinant protein, and 4 μL Biotin-tagged BIM protein peptide. After 1 hour of reaction, 5 μL of each Anti-His and streptavidin-tagged XL665 antibody diluents diluted with a detection buffer were added. After incubating at room temperature for 4 hours, the values were read using the Envision multifunctional microplate reader to detect the effect of the compound to be tested on the binding ability of BCL-XL to BIM protein peptides. The Envision parameter settings were exciting light at 320 nm, and emitting light at 615 nm and 665 nm. The binding ability of anti-apoptotic proteins to Bim protein peptides was indirectly reflected by the signal ratio of 665 nm and 615 nm. In the reaction, background wells without BCL2 and active wells for full binding of recombinant proteins without compounds and Bim protein peptides were set up.
A general note: TR-FRET usually uses a lanthanide donor and a delayed reading to cut background.

The target of a further experiment is BCL2 (Homo sapiens (Human), UniProt P10415). As to the kind of experiment: Molecular level activity test of anti-apoptotic protein BCL2 (HTRF, binding to Bim peptide). Conditions: HTRF, binding of BCL2 to Bim peptide; read-out: BCL2 nM (inhibitory activity, IC50). The method in brief: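 Disruption of the BCL2/Bim peptide interaction is detected by homogeneous time-resolved fluorescence, using anti-His and streptavidin-XL665 reagents against His-tagged protein and biotin-tagged peptide. Compound exposure lasts 1 h before reagent addition; plates then sit 4 h at room temperature.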
BCL2, sequence (P10415 whole entry): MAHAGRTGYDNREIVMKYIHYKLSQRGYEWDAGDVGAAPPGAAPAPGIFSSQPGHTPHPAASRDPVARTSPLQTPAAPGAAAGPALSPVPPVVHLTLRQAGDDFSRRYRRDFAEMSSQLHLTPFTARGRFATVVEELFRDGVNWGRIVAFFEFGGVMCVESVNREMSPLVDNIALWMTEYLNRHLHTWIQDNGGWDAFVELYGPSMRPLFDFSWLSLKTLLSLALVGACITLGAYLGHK

BCL-XL, sequence (Q07817 whole entry): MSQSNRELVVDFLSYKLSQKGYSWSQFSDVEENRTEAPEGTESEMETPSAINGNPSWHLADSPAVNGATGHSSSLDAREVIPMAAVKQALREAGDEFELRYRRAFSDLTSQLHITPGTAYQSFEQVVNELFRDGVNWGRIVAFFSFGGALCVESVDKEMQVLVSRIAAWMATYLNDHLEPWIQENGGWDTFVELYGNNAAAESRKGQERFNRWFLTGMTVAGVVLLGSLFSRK

Turning to `COc1ccc(CN2CCN(C3CC4(CCN(c5cc(Oc6cnc7[nH]ccc7c6)c(C(=O)NS(=O)(=O)c6ccc(NCC7(F)CCOCC7)c([N+](=O)[O-])c6)cc5F)CC4)C3)C(c3ccccc3C(C)C)C2)cc1` (stereo not shown) [compound 066, 2-((1H-pyrrolo[2,3-b]pyrid-5-yl)oxy)-5-fluoro-N-((4-(((4-fluorotetrahydro-2H-pyran-4-yl)methyl)amino)-3-nitrophenyl)sulfonyl)-4-(2-(2-(2-isopropylphenyl)-4-(4-methoxybenzyl)piperazin-1-yl)-7-azaspiro[3.5]non-7-yl)benzamide], the values for the IC50 on BCL-XL and at BCL2 were over 500 nM and under 10 nM, respectively.

For the compound `CC(C)c1ccccc1[C@@H]1CN(Cc2ccc(C(F)(F)F)cc2)CCN1C1CC2(CCN(c3cc(Oc4cnc5[nH]ccc5c4)c(C(=O)NS(=O)(=O)c4ccc(NCC5(F)CCOCC5)c([N+](=O)[O-])c4)cc3F)CC2)C1` [compound 188, (R)-2-((1H-pyrrolo[2,3-b]pyrid-5-yl)oxy)-5-fluoro-N-((4-(((4-fluorotetrahydro-2H-pyran-4-yl)methyl)amino)-3-nitrophenyl)sulfonyl)-4-(2-(2-(2-isopropylphenyl)-4-(4-(trifluoromethyl)benzyl)piperazin-1-yl)-7-azaspiro[3.5]non-7-yl)benzamide], the IC50 (in general, the concentration that inhibits the measured activity by half) on BCL-XL is over 500 nM; at BCL2 it was under 10 nM. The corresponding values for `CC(C)c1ccc(CN2CCN(C3CC4(CCN(c5cc(Oc6cnc7[nH]ccc7c6)c(C(=O)NS(=O)(=O)c6ccc(NCC7(F)CCOCC7)c([N+](=O)[O-])c6)cc5F)CC4)C3)[C@H](c3ccccc3C(C)C)C2)cc1` [compound 193, (R)-2-((1H-pyrrolo[2,3-b]pyrid-5-yl)oxy)-5-fluoro-N-((4-(((4-fluorotetrahydro-2H-pyran-4-yl)methyl)amino)-3-nitrophenyl)sulfonyl)-4-(2-(4-(4-isopropylbenzyl)-2-(2-isopropylphenyl)piperazin-1-yl)-7-azaspiro[3.5]non-7-yl)benzamide] are over 500 nM and under 10 nM. The corresponding values for `CC(C)c1ccccc1[C@@H]1CN(Cc2ccc(C3CC3)cc2)CCN1C1CC2(CCN(c3cc(Oc4cnc5[nH]ccc5c4)c(C(=O)NS(=O)(=O)c4ccc(NCC5(F)CCOCC5)c([N+](=O)[O-])c4)cc3F)CC2)C1` [compound 195, (R)-2-((1H-pyrrolo[2,3-b]pyrid-5-yl)oxy)-4-(2-(4-(4-cyclopropylbenzyl)-2-(2-isopropylphenyl)piperazin-1-yl)-7-azaspiro[3.5]non-7-yl)-5-fluoro-N-((4-(((4-fluorotetrahydro-2H-pyran-4-yl)methyl)amino)-3-nitrophenyl)sulfonyl)benzamide] are over 500 nM and under 10 nM. The corresponding values for `CC(C)c1ccccc1[C@@H]1CN(Cc2cccc3c2OCO3)CCN1C1CC2(CCN(c3cc(Oc4cnc5[nH]ccc5c4)c(C(=O)NS(=O)(=O)c4ccc(NCC5(F)CCOCC5)c([N+](=O)[O-])c4)cc3F)CC2)C1` [compound 204, (R)-2-((1H-pyrrolo[2,3-b]pyrid-5-yl)oxy)-4-(2-(4-(benzo[d][1,3]dioxocyclopent-4-ylmethyl)-2-(2-isopropylphenyl)piperazin-1-yl)-7-azaspiro[3.5]non-7-yl)-5-fluoro-N-((4-(((4-fluorotetrahydro-2H-pyran-4-yl)methyl)amino)-3-nitrophenyl)sulfonyl)benzamide] are over 500 nM and under 10 nM.

Turning to `COc1ccc(CN2CCN(C3CC4(CCN(c5cc(Oc6cnc7[nH]ccc7c6)c(C(=O)NS(=O)(=O)c6ccc(NCC7(F)CCOCC7)c([N+](=O)[O-])c6)cc5F)CC4)C3)[C@H](c3ccccc3C(C)C)C2)c2c1OCO2` [compound 205], the concentration for half-maximal inhibition (IC50) is over 500 nM at BCL-XL and under 10 nM on BCL2. Taken in the same sequence, the figures for `CC(C)c1ccccc1[C@@H]1CN(Cc2ccc3c(c2)OCCO3)CCN1C1CC2(CCN(c3cc(Oc4cnc5[nH]ccc5c4)c(C(=O)NS(=O)(=O)c4ccc(NCC5(F)CCOCC5)c([N+](=O)[O-])c4)cc3F)CC2)C1` [compound 207, (R)-2-((1H-pyrrolo[2,3-b]pyrid-5-yl)oxy)-4-(2-(4-((2,3-dihydrobenzo[b][1,4]dioxane-6-yl)methyl)-2-(2-isopropylphenyl)piperazin-1-yl)-7-azaspiro[3.5]non-7-yl)-5-fluoro-N-((4-(((4-fluorotetrahydro-2H-pyran-4-yl)methyl)amino)-3-nitrophenyl)sulfonyl)benzamide] were over 500 nM and under 10 nM. Taken in the same sequence, the figures for `CC(C)c1ccccc1[C@@H]1CN(Cc2ccc(C(F)(F)F)cc2)CCN1C1CC2(CCN(c3cc(Oc4cnc5[nH]ccc5c4)c(C(=O)NS(=O)(=O)c4ccc(NC[C@H]5CC[C@](C)(O)CC5)c([N+](=O)[O-])c4)cc3F)CC2)C1` [compound 216, 2-((1H-pyrrolo[2,3-b]pyrid-5-yl)oxy)-5-fluoro-N-((4-((((1r, 4r)-4-hydroxy-4-methylcyclohexyl)methyl)amino)-3-nitrophenyl)sulfonyl)-4-(2-((R)-2-(2-isopropylphenyl)-4-(4-(trifluoromethyl)benzyl)piperazin-1-yl)-7-azaspiro[3.5]non-7-yl)benzamide] were over 500 nM and under 10 nM. For the compound `CC(C)c1ccccc1[C@@H]1CN(Cc2c(F)cccc2F)CCN1C1CC2(CCN(c3cc(Oc4cnc5[nH]ccc5c4)c(C(=O)NS(=O)(=O)c4ccc(NC[C@H]5CC[C@](C)(O)CC5)c([N+](=O)[O-])c4)cc3F)CC2)C1` [compound 217, 2-((1H-pyrrolo[2,3-b]pyrid-5-yl)oxy)-4-(2-((R)-4-(2,6-difluorobenzyl)-2-(2-isopropylphenyl)piperazin-1-yl)-7-azaspiro[3.5]non-7-yl)-5-fluoro-N-((4-((((1r, 4r)-4-hydroxy-4-methylcyclohexyl)methyl)amino)-3-nitrophenyl)sulfonyl)benzamide], the figures for the IC50 on BCL-XL and on BCL2 were over 500 nM and under 10 nM, respectively. In the case of `CC(C)c1ccccc1[C@@H]1CN(Cc2ccc3c(c2)OCO3)CCN1C1CC2(CCN(c3cc(Oc4cnc5[nH]ccc5c4)c(C(=O)NS(=O)(=O)c4ccc(NC[C@H]5CC[C@](C)(O)CC5)c([N+](=O)[O-])c4)cc3F)CC2)C1` [compound 224, 2-((1H-pyrrolo[2,3-b]pyrid-5-yl)oxy)-4-(2-((R)-4-(benzo[d][1,3]dioxocyclopent-5-ylmethyl)-2-(2-isopropylphenyl)piperazin-1-yl)-7-azaspiro[3.5]non-7-yl)-5-fluoro-N-((4-((((1r, 4r)-4-hydroxy-4-methylcyclohexyl)methyl)amino)-3-nitrophenyl)sulfonyl)benzamide], the results for the concentration for half-maximal inhibition (IC50) at BCL-XL and at BCL2 were over 500 nM and under 10 nM, respectively. In the case of “(S)-2-((1H-pyrrolo[2,3-b]pyrid-5-yl)oxy)-N-(7-(((4-fluorotetrahydro-2H-pyran-4-yl)methyl)amino)-6-nitro-1H-benzo[d]imidazol-4-yl)sulfonyl)-4-(2-(2-(2-isopropylphenyl)pyrrolidin-1-yl)-7-azaspiro[3.5]non-7-yl)benzamide [compound 005]”, on BCL2, the half-inhibitory concentration (IC50) is under 10 nM. Same read-out and setting: the figure for “(S)-2-((1H-pyrrolo[2,3-b]pyrid-5-yl)oxy)-N-((7-(((4-fluoro-1-(oxocyclobut-3-yl)piperid-4-yl)methyl)amino)-6-nitro-1H-benzo[d]imidazol-4-yl)sulfonyl)-4-(2-(2-(2-isopropylphenyl)pyrrolidin-1-yl)-7-azaspiro[3.5]non-7-yl)benzamide [compound 003]” is under 10 nM.
